Assay results: PubChem BioAssay AID256 (DTP/NCI, 2004)
Several values for one entry are separate records, joined by “and”; a condition that tells them apart may be missing. Equal entries are not always repeated. Inconclusive results and toxic doses are left out. Rule for the calls: active = survival T/C of 150% or more; inactive = T/C below 125% in these data.

Test system: CD2F1 mice, L1210 leukemia ip, survival T/C
Assay: NCI In Vivo Anticancer Drug Screen. Data for tumor model L1210 Leukemia (intraperitoneal) in CD2F1 (CDF1) mice
Details: higher = longer survival
How it was run: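 In this screen, transplantable tumors were grown in mice given either the compound or its vehicle. Results were expressed as the treated measurement relative to the control measurement.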

[1] = endpoint: mean survival time, dose: 6.25 mg/kg/injection, schedule: Q01DX009 (ip), vehicle: saline with Tween-80
[2] = endpoint: mean survival time, dose: 6.25 mg/kg/injection, schedule: Q04DX003 (ip), vehicle: saline with Tween-80
[3] = endpoint: mean survival time, dose: 12.5 mg/kg/injection, schedule: Q04DX003 (ip), vehicle: saline with Tween-80
[4] = endpoint: mean survival time, dose: 25.0 mg/kg/injection, schedule: Q04DX003 (ip), vehicle: saline with Tween-80
[5] = endpoint: mean survival time, dose: 100.0 mg/kg/injection, schedule: Q04DX003 (ip), vehicle: saline with Tween-80
[6] = endpoint: mean survival time, dose: 200.0 mg/kg/injection, schedule: Q04DX003 (ip), vehicle: saline with Tween-80
[7] = endpoint: mean survival time, dose: 400.0 mg/kg/injection, schedule: Q04DX003 (ip), vehicle: saline with Tween-80
[8] = endpoint: mean survival time, dose: 100.0 mg/kg/injection, schedule: Q01DX001 (ip), vehicle: saline with Tween-80
[9] = endpoint: mean survival time, dose: 200.0 mg/kg/injection, schedule: Q01DX001 (ip), vehicle: saline with Tween-80

Measured: T/C

CCOC(=O)N(C)CC1C(=O)Nc2ccccc21 (configuration not stated)
inactive: endpoint: mean survival time, dose: 100.0 mg/kg/injection, schedule: Q04DX003 (ip), vehicle: Klucel (hydroxypropylcellulose) (HPC) 105 % of control | endpoint: mean survival time, dose: 200.0 mg/kg/injection, schedule: Q04DX003 (ip), vehicle: Klucel (hydroxypropylcellulose) (HPC) 110 % of control | endpoint: mean survival time, dose: 400.0 mg/kg/injection, schedule: Q04DX003 (ip), vehicle: Klucel (hydroxypropylcellulose) (HPC) 102 % of control

O=c1ccn(C2OC(CO)C3[O][Sn]([c]4ccccc4)([c]4ccccc4)[O]C32)c(=O)[nH]1 (configuration not stated)
inactive: endpoint: mean survival time, dose: 1.56 mg/kg/injection, schedule: Q01DX005 (ip), vehicle: other 110 % of control | endpoint: mean survival time, dose: 3.13 mg/kg/injection, schedule: Q01DX005 (ip), vehicle: other 107 % of control | endpoint: mean survival time, dose: 6.25 mg/kg/injection, schedule: Q01DX005 (ip), vehicle: other 98 % of control | endpoint: mean survival time, dose: 12.5 mg/kg/injection, schedule: Q01DX005 (ip), vehicle: other 102 % of control and 105 % of control

O=[N+]([O-])CC1CCCCC1O (configuration not stated)
inactive: [1] 89 % of control | [2] 102 % of control | endpoint: mean survival time, dose: 12.5 mg/kg/injection, schedule: Q01DX009 (ip), vehicle: saline with Tween-80 91 % of control | [3] 96 % of control | endpoint: mean survival time, dose: 25.0 mg/kg/injection, schedule: Q01DX009 (ip), vehicle: saline with Tween-80 94 % of control | [4] 93 % of control

CCCCCCCCCC1=NC(C)(C)CN1c1ccccc1
inactive: endpoint: mean survival time, dose: 5.0 mg/kg/injection, schedule: Q01DX009 (ip), vehicle: saline with Tween-80 98 % of control | endpoint: mean survival time, dose: 10.0 mg/kg/injection, schedule: Q01DX009 (ip), vehicle: saline with Tween-80 102 % of control | endpoint: mean survival time, dose: 20.0 mg/kg/injection, schedule: Q01DX009 (ip), vehicle: saline with Tween-80 106 % of control

CCCCCCCCCCCCCC(=O)[O][Sn]([CH2]CCC)([CH2]CCC)[O]C(=O)CCCCCCCCCCCCC
inactive: endpoint: mean survival time, dose: 0.78 mg/kg/injection, schedule: Q01DX009 (ip), vehicle: other 97 % of control | endpoint: mean survival time, dose: 1.56 mg/kg/injection, schedule: Q01DX009 (ip), vehicle: other 100 % of control | endpoint: mean survival time, dose: 3.13 mg/kg/injection, schedule: Q01DX009 (ip), vehicle: other 112 % of control

CCCCCCCCCCCC(=O)[O][Pb]([CH2]C)([CH2]C)[CH2]C
inactive: endpoint: mean survival time, dose: 3.13 mg/kg/injection, schedule: Q01DX009 (ip), vehicle: saline with Tween-80 87 % of control | [1] 104 % of control

COC1(c2ccccc2)CN(Cc2ccccc2)CCO1 (configuration not stated)
inactive: [5] 103 % of control | [6] 100 % of control | [7] 106 % of control

C1CCN(NC2=NCCO2)CC1
inactive: endpoint: mean survival time, dose: 6.25 mg/kg/injection, schedule: Q01DX009 (ip), vehicle: saline 101 % of control | endpoint: mean survival time, dose: 12.5 mg/kg/injection, schedule: Q01DX009 (ip), vehicle: saline 98 % of control | endpoint: mean survival time, dose: 25.0 mg/kg/injection, schedule: Q01DX009 (ip), vehicle: saline 98 % of control

O=C1c2ccccc2C(=O)N1CC(O)CN1C(=O)c2ccccc2C1=O
inactive: endpoint: mean survival time, dose: 50.0 mg/kg/injection, schedule: Q01DX001 (ip), vehicle: other 98 % of control | endpoint: mean survival time, dose: 100.0 mg/kg/injection, schedule: Q01DX001 (ip), vehicle: other 100 % of control | endpoint: mean survival time, dose: 200.0 mg/kg/injection, schedule: Q01DX001 (ip), vehicle: other 93 % of control | endpoint: mean survival time, dose: 400.0 mg/kg/injection, schedule: Q01DX001 (ip), vehicle: other 94 % of control

Clc1c(Br)nc(Br)nc1C(Cl)(Cl)Cl
inactive: [2] 98 % of control | [3] 98 % of control | [4] 98 % of control

CCCCCNc1ncnc2c(C)[nH]nc12
inactive: endpoint: median survival time, dose: 25.0 mg/kg/injection, schedule: Q01DX009 (ip), vehicle: Klucel (hydroxypropylcellulose) (HPC) 101 % of control | endpoint: median survival time, dose: 50.0 mg/kg/injection, schedule: Q01DX009 (ip), vehicle: Klucel (hydroxypropylcellulose) (HPC) 108 % of control | endpoint: median survival time, dose: 100.0 mg/kg/injection, schedule: Q01DX009 (ip), vehicle: Klucel (hydroxypropylcellulose) (HPC) 100 % of control | endpoint: median survival time, dose: 200.0 mg/kg/injection, schedule: Q01DX009 (ip), vehicle: Klucel (hydroxypropylcellulose) (HPC) 96 % of control

COc1cc(C(=O)N2CC3CCC(CC3)C2)cc(OC)c1OC
inactive: [5] 93 % of control | [6] 96 % of control | [7] 96 % of control

FC(F)(F)Cc1cccc(C(F)(F)F)c1
inactive: [5] 109 % of control | [6] 108 % of control | [7] 100 % of control

Oc1cccc(O)c1
inactive: endpoint: mean survival time, dose: 50.0 mg/kg/injection, schedule: Q01DX009 (ip), vehicle: saline 98 % of control | endpoint: mean survival time, dose: 100.0 mg/kg/injection, schedule: Q01DX009 (ip), vehicle: saline 95 % of control | endpoint: mean survival time, dose: 200.0 mg/kg/injection, schedule: Q01DX009 (ip), vehicle: saline 101 % of control

O=C(O)C1CCc2c(cnn2-c2ccc(Cl)cc2)C1 (configuration not stated)
inactive: endpoint: mean survival time, dose: 100.0 mg/kg/injection, schedule: Q04DX002 (ip), vehicle: saline with Tween-80 96 % of control | endpoint: mean survival time, dose: 200.0 mg/kg/injection, schedule: Q04DX002 (ip), vehicle: saline with Tween-80 103 % of control | endpoint: mean survival time, dose: 400.0 mg/kg/injection, schedule: Q04DX002 (ip), vehicle: saline with Tween-80 103 % of control

NC1=NC(c2ccccc2)N(c2ccc(Cl)cc2)C(N)=N1 (configuration not stated)
inactive: [8] 93 % of control | [9] 95 % of control

CCCCOC(=O)c1cc([N+](=O)[O-])cc([N+](=O)[O-])c1Sc1ncnc2nc[nH]c12
inactive: endpoint: mean survival time, dose: 0.63 mg/kg/injection, schedule: Q01DX005 (ip), vehicle: other 108 % of control | endpoint: mean survival time, dose: 1.25 mg/kg/injection, schedule: Q01DX005 (ip), vehicle: other 95 % of control | endpoint: mean survival time, dose: 2.5 mg/kg/injection, schedule: Q01DX005 (ip), vehicle: other 110 % of control | endpoint: mean survival time, dose: 5.0 mg/kg/injection, schedule: Q01DX005 (ip), vehicle: other 113 % of control | endpoint: mean survival time, dose: 9.4 mg/kg/injection, schedule: Q01DX005 (ip), vehicle: other 98 % of control | endpoint: mean survival time, dose: 10.0 mg/kg/injection, schedule: Q01DX005 (ip), vehicle: other 115 % of control | endpoint: mean survival time, dose: 18.8 mg/kg/injection, schedule: Q01DX005 (ip), vehicle: other 103 % of control | endpoint: mean survival time, dose: 37.5 mg/kg/injection, schedule: Q01DX005 (ip), vehicle: other 109 % of control | endpoint: mean survival time, dose: 75.0 mg/kg/injection, schedule: Q01DX005 (ip), vehicle: other 113 % of control

CC(C)CC(=O)c1ccccc1O
inactive: endpoint: mean survival time, dose: 100.0 mg/kg/injection, schedule: Q01DX001 (ip), vehicle: saline 100 % of control | endpoint: mean survival time, dose: 200.0 mg/kg/injection, schedule: Q01DX001 (ip), vehicle: saline 97 % of control | endpoint: mean survival time, dose: 400.0 mg/kg/injection, schedule: Q01DX001 (ip), vehicle: saline 96 % of control

NC(=O)c1nnc(-c2ccccn2)[nH]c1=O
inactive: endpoint: mean survival time, dose: 25.0 mg/kg/injection, schedule: Q01DX001 (ip), vehicle: Klucel (hydroxypropylcellulose) (HPC) 94 % of control | endpoint: mean survival time, dose: 50.0 mg/kg/injection, schedule: Q01DX001 (ip), vehicle: Klucel (hydroxypropylcellulose) (HPC) 98 % of control | endpoint: mean survival time, dose: 100.0 mg/kg/injection, schedule: Q01DX001 (ip), vehicle: Klucel (hydroxypropylcellulose) (HPC) 98 % of control

CC(C)(C)OC(=O)NC(CCCCNC(=O)C(F)(F)F)C(=O)O (configuration not stated)
inactive: endpoint: mean survival time, dose: 100.0 mg/kg/injection, schedule: Q01DX009 (ip), vehicle: saline with Tween-80 102 % of control | endpoint: mean survival time, dose: 200.0 mg/kg/injection, schedule: Q01DX009 (ip), vehicle: saline with Tween-80 93 % of control | endpoint: mean survival time, dose: 400.0 mg/kg/injection, schedule: Q01DX009 (ip), vehicle: saline with Tween-80 87 % of control

O=P(N1CCCC1)(N1CCCC1)N1CCCC1.O=[N+]([O-])O.O=[N+]([O-])O.[O]=[U]=[O]
inactive: endpoint: mean survival time, dose: 3.12 mg/kg/injection, schedule: Q04DX003 (ip), vehicle: Klucel (hydroxypropylcellulose) (HPC) 102 % of control | endpoint: mean survival time, dose: 12.5 mg/kg/injection, schedule: Q04DX003 (ip), vehicle: Klucel (hydroxypropylcellulose) (HPC) 102 % of control

CC1CC(C)(C)NC(CCC2CCCCC23OCCO3)O1 (configuration not stated)
inactive: [8] 107 % of control | [9] 105 % of control | endpoint: mean survival time, dose: 400.0 mg/kg/injection, schedule: Q01DX001 (ip), vehicle: saline with Tween-80 97 % of control

O=C(CCl)OCc1ccc([N+](=O)[O-])o1
inactive: [5] 98 % of control | [6] 101 % of control
